From PMC7111291 (European Journal of Medicinal Chemistry, 2020)
Read-outs that look alike come from different tables or passages of the source.

Experiments:
[1] = system: wild type HIV-1 (VSVG/HIV-1wt); assay: microbe, parasite or virus in culture; assay type: cell-based; settings: for EC50: read-out: EC50±SD
HIV-1 RT Ribonuclease H = HIV-1 RT Ribonuclease H (Human immunodeficiency virus type 1 group M subtype B, UniProt P04585); assay: Ribonuclease H activity detection; assay type: biochemical
VSVG/HIV-1RT-Y188L = assay type: cell-based; settings: for EC50: read-out: EC50±SD
HEK 293T cells = assay type: cell-based, human; settings: read-out: CC50±SD, 48 h
VSVG/HIV-1RT-K103N = assay type: cell-based
VSVG/HIV-1RT-Y181C = assay type: cell-based
VSVG/HIV-1RT-K103N,G190A = assay type: cell-based
VSVG/HIV-1RT-K103N,V108I = assay type: cell-based
[2] = Human immunodeficiency virus 1, HEK-293T

Structure (SMILES) | EC50 [1] [nM] | IC50 (HIV-1 RT Ribonuclease H) [nM] | EC50 [1, 2] [nM] | further results
CCCOn1cc(CC(=O)Nc2ccccc2Cl)c2ccccc21 [Compound 6d, N-(2-Chlorophenyl)-2-(1-propoxy-1H-indol-3-yl)acetamide] | 490 | > 100000 | – | EC50 (VSVG/HIV-1RT-Y188L): > 10000 nM
CCCOn1cc(CC(=O)Nc2ccncc2Cl)c2ccccc21 [Compound 10f, N-(3-Chloropyridin-4-yl)-2-(1-propoxy-1H-indol-3-yl)acetamide] | 70 | > 100000 | – | –
CCCCOn1cc(CC(=O)Nc2ccncc2Cl)c2ccccc21 [Compound 10i, 2-(1-Butoxy-1H-indol-3-yl)-N-(3-chloropyridin-4-yl)acetamide] | – | > 100000 | 60 ± 0.5 | –
CCCOn1cc(C(=O)C(=O)Nc2ccncc2Cl)c2ccccc21 [Compound 14, N-(3-Chloropyridin-4-yl)-2-oxo-2-(1-propoxy-1H-indol-3-yl)acetamide] | > 10000 | – | – | infectivity when treated with the compound (percentage in parentheses) [1]: >10; (131.6 ± 0.60%); CC50 (HEK 293T cells): 20900 ± 5110 nM
CCCOn1cc(C(O)C(=O)Nc2ccncc2Cl)c2ccccc21 (stereo not shown) [Compound 15, N-(3-Chloropyridin-4-yl)-2-hydroxy-2-(1-propoxy-1H-indol-3-yl)acetamide] | 2010 ± 60 | – | – | CC50 (HEK 293T cells): 19000 ± 2310 nM
O=C1Nc2ccc(Cl)cc2[C@@](C#CC2CC2)(C(F)(F)F)O1 [EFV, efavirenz] | 1 | – | 0.7 ± 0.2 | Mean change (fold) in EC50 compared to wild type (VSVG/HIV-1RT-K103N): 0.03 ± 0.003 (27.0) fold; Mean change (fold) in EC50 compared to wild type (VSVG/HIV-1RT-Y181C): 0.002 ± 0.0001 (1.7) fold; Mean change (fold) in EC50 compared to wild type (VSVG/HIV-1RT-Y188L): 0.12 ± 0.03 (124.3) fold; Mean change (fold) in EC50 compared to wild type (VSVG/HIV-1RT-K103N,G190A): 0.18 ± 0.01 (183.0) fold; Mean change (fold) in EC50 compared to wild type (VSVG/HIV-1RT-K103N,V108I): 0.06 ± 0.01 (55.5) fold
Cc1ccnc2c1NC(=O)c1cccnc1N2C1CC1 [NVP, nevirapine, reference compound] | 20 | – | 30 ± 3 | EC50 (VSVG/HIV-1RT-Y188L): > 100000 nM
